In PMC7878925, “Continuous stimulation of dual-function peptide PGLP-1-VP inhibits the morbidity and mortality of NOD mice through anti-inflammation and immunoregulation” (Scientific Reports, 2021):
Where no end group is shown, it is not given here.

Columns and labels:
[1] = test system: DPP-IV; experiment: in vitro; conditions: human, isolated enzyme dpp iv
Experimental: Stability test for DPP-IV in vitro was performed as previously described.

[2] = test system: NOD mice; conditions: 210 nmol/kg s.c. twice weekly for 24 weeks
Experimental: Female 4-week-old NOD mice were obtained from Beijing HFK Bioscience Co. Ltd. (Beijing, China). NOD mice were randomly divided into 4 groups: vehicle, PGLP-1, VP and PGLP-1-VP, and each group was subcutaneously injected twice weekly with placebo [Lipofundin[32] (B. Braun Melsungen AG, Melsungen, Germany)] or 210 nmol/kg of peptides for 24 weeks. Body weight and blood glucose were measured once every 2 weeks until the end of the observation period. NOD mice were considered diabetic when blood glucose concentrations exceeded 200 mg/dL for 2 consecutive measurements. The onset time and death time of diabetic mice were calculated. Indexes of dead mice were shown as the last blood glucose or weight data. Blood samples were collected retro-orbital and centrifuged, and then serum was collected. Serum C-peptide levels and transforming growth factor-β1 (TGF-β1) were measured by enzyme-linked immunosorbent kits (Jiancheng Bio-Engineering Institute Co., Ltd. Nanjing, China).

[3] = target: human GLP-1R (Homo sapiens, UniProt P43220); experiment: cell-based
Chain of human GLP-1R (P43220 24-463): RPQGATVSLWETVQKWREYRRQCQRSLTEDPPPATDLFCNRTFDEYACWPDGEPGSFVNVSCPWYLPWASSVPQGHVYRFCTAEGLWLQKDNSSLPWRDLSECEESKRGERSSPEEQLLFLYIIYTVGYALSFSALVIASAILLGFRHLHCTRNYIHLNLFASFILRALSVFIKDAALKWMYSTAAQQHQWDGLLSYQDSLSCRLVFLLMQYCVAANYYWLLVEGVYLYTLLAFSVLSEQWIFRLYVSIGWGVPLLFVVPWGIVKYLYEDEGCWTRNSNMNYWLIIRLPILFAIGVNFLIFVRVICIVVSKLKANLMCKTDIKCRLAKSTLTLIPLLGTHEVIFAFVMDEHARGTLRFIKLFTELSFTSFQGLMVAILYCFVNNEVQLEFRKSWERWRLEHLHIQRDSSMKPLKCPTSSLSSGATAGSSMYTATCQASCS
Experimental: Human embryonic kidney (HEK-293) cells were obtained from ATCC and cultured in growing media (DMEM: 25 mM glucose, 10% FBS, 100 µg/mL penicillin and 100 µg/mL streptomycin).

Row | Molecule | remaining at 10 h, 10 µM [1] [%] | body weights compared to controls [2] | EC50 [3] [nM]
1 | CC[C@H](C)[C@H](NC(=O)[C@H](Cc1ccccc1)NC(=O)[C@H](CCC(=O)O)NC(=O)[C@H](CCCCN)NC(=O)[C@H](C)NC(=O)[C@H](C)NC(=O)[C@H](CCC(N)=O)NC(=O)CNC(=O)[C@H](CCC(=O)O)NC(=O)[C@H](CC(C)C)NC(=O)[C@H](Cc1ccc(O)cc1)NC(=O)[C@H](CO)NC(=O)[C@H](CO)NC(=O)[C@@H](NC(=O)[C@H](CC(=O)O)NC(=O)[C@H](CO)NC(=O)[C@@H](NC(=O)[C@H](Cc1ccccc1)NC(=O)[C@@H](NC(=O)CNC(=O)[C@H](CCC(=O)O)NC(=O)[C@H](C)NC(=O)[C@@H](N)Cc1c[nH]cn1)[C@@H](C)O)[C@@H](C)O)C(C)C)C(=O)N[C@@H](C)C(=O)N[C@@H](Cc1c[nH]c2ccccc12)C(=O)N[C@@H](CC(C)C)C(=O)N[C@H](C(=O)N[C@@H](CCCCN)C(=O)NCC(=O)N[C@@H](CCCN=C(N)N)C(=O)NCC(=O)O)C(C)C [GLP-1, Glucagon-like peptide-1] | 6.3 | – | –
2 | HGEGTFTSDVSSYLEGQAAKEFIAWLVKGRGPGVLGGGCRCIPALDSLTPANED (cysteines drawn unpaired) [PGLP-1-VP] | – | not affected | 139 ± 37
